From patent publication US20060263304A1, “Method of controlling alcohol intake and reversing alcohol effects” (priority 2005, published 2006)

Tested on: non-substance dependent individual
Experiment: Case report: Flumazenil nasal spray before business dinners, control of alcohol intake
Assay type: in vivo
From the text: As in the co-pending applications, medication sprays are used to accomplish the above noted tasks. any one of several technologies may be used: • 1) A nasal spray applicator affecting the vein endings in the mucosal membranes of the nasal passage; • 2) A mouth spray affecting the buccal mucosal membrane in the mouth area; • 3) A pulmonary inhaler aerosolization into the lungs; • 4) Any other delivery system that provides direct absorption through mucus membranes directly into the blood stream. For example, the nasal spray may be used by an individual to assist in maintaining control of his or her drinking on a frequent or daily basis because they or their loved ones feel their use of alcohol is excessive. The spray will also act as a behavior trigger to assist in reminding the individual or retraining the individual to mind the frequency, amount or setting of intake of alcohol. In this setting of spray-assisted control of alcohol use there is provided a positive reinforcement of successful moderation, and eventually, the spray assist should no longer be needed. From several hours before, and including even while the individual is already drinking, the user of this nasal spray simply squirts one to three doses into each nostril in order to substantially decrease the total consumption of alcohol at any one drinking session. The duration of the effect will vary from individual to individual. The administration of the spray may be repeated as often as one wishes over the period or course of drinking to achieve the desired results, that is, a reduction in the use of alcohol, whether in total amount or in rapidity of alcohol ingestion. Case Report: A non-substance dependent individual ([…]) used this nasal spray by spraying two squirts of the medication “Flumazenil” into each nostril before business dinners on two separate occasions. Without this medication, their usual pattern was the ingestion of one to two martinis before and at the beginning of the meal, followed by one to two glasses of wine during and after the meal.

Question: `CCOC(=O)c1ncn2c1CN(C)C(=O)c1cc(F)ccc1-2` [Flumazenil] was tested. Which “effect of the alcohol on their thinking and feeling” value (two squirts into each nostril before business dinner, each of two occasions, self-reported) did it give?
Answer: less of an effect on their thinking and feeling than usual

Question: What about the “actual intake of wine” value (two squirts into each nostril before business dinner, each of two occasions, usual pattern without medication one to two glasses of wine) of the same compound?
Answer: less than one glass of wine

Question: And the “actual intake of martini” value (two squirts into each nostril before business dinner, each of two occasions, usual pattern without medication one to two martinis)?
Answer: less than one martini

Question: What about the “interest in the alcoholic beverages” value (two squirts into each nostril before business dinners, two separate occasions, one individual) of the same compound?
Answer: substantially reduced
